The record followed here is patent US8008328B2, “Methods for the treatment of diabetes-associated dyslipdemia” (Reddy US Therapeutics, Inc., priority 2007, dated 2011).

The subject of experiment [1] is insulin receptor substrate (IRS-1). Put plainly: IRS-1 Ser307 phosphorylation in differentiated 3T3L1 adipocytes (Western blot). It is filed as cell-based, Murine. The following applies: FIG. 1; for IRS-1 phosphorylation: agent alone compared to untreated, 3T3L1 adipocytes. Background: A western blot detects proteins with antibodies after separation by electrophoresis.

Another experiment deals with THP-1. The experiment can be described thus: Niacin-induced PGD2 secretion in PMA-differentiated THP-1 macrophages. It is filed as cell-based, human. The note with it: FIG. 4.
The next experiment relates to db/db mice. The experiment can be described thus: Plasma insulin and lipids in db/db diabetic mouse model. Format: in vivo. As for the experimental part: The animals were 40 Female db/db diabetic mice, 4 weeks old on a diet of normal rodent chow. The tests were conducted on five groups, with 7-8 mice per group.
Group 1: Control CMC-tween, oral pipetting, 7 mice. Once a day for 28 days, 60 μl/mouse.
Group 2: Niacin 2.5 g/kg (roughly), in drinking water for 28 days, 7 mice (10 mg/mL in water).
Once a day for 28 days, 30 ul/mouse. (2 mg/mL in water)
Group 5: Pioglitazone 30 mg/kg/day, oral pipetting, 7 mice. Once a day for 28 days, 60 μL/mouse. (15 mg/mL in Vehicle)
Body weight was measured in all groups once a week. Food consumption was monitored once a week. All animals were fasted for 4 hours and plasma glucose levels were measured by OneTouch™ Ultra blood glucose meter. 35 animals were divided to 5 groups with 7 mice per group base on plasma glucose level. (Plasma glucose >120 mg/dL as a cut off for animal selection). 200 μL blood samples were collected from retro-orbital vein for plasma insulin level and lipids profile at baseline.
Treatment started for all groups and lasted for 28 days. 4 hours fast blood samples were collected for plasma insulin level and lipids profile at 2 weeks and 4 weeks post dose. The Oral Glucose Tolerance Test (“OGTT”) was conducted at day 16 and day 30 post dose.

Where [2] appears, read: db/db diabetic dyslipidemia model, FIG. 3.

Consider `Cc1cnc(NC(=O)C2=C(O)c3ccccc3S(=O)(=O)N2C)s1` [meloxicam], for which the “effect on TNFα-induced IRS1 phosphorylation” value in experiment [1] (cells incubated with compound 2 hours prior to TNFα (20 ng/mL, 30 minutes)) is “inhibited”. In the experiment with THP-1 (compound 30 minutes prior to niacin), the “effect on niacin-induced increase in PGD2 levels” value was “inhibited”. Also, the insulin levels result in the experiment on db/db mice (db/db mice, 2 mg/kg/day for two weeks) is given as “reduced”. The plasma insulin result with db/db mice (db/db mice, treatment up to 28 days, FIG. 2) was “significantly reduced”. Further, the “effect on niacin's ability to increase HDL or decrease triglycerides” value with db/db mice (meloxicam added to niacin, db/db mice, FIG. 3) is “did not affect”.

Turning to `O=C(O)c1cccnc1` [niacin, pyridine-3-carboxylic acid], the IRS-1 phosphorylation result in experiment [1] was “significantly increased”. Also, the “PGD2 levels in culture medium” value in the experiment with THP-1 (compared to controls) is “increased”. Also, in the experiment with db/db mice (setting [2]), the HDL result is “increase” and the triglycerides result is listed as “decrease”.

As for TNFα, the IRS-1 phosphorylation entry in experiment [1] is listed as “increased”.
